Here are results for two compounds from patent publication US4032635A, “Pharmaceutical method for the therapy of immune diseases” (Zaidan Hojin Biseibutsu Kagaku Kenkyu Kai, priority 1975, dated 1977).

Like-named read-outs stand apart in the source and are kept apart here.

In data set [1] the test system is experimental allergic encephalomyelitis (EAE). Particulars: cited from earlier work.
Data set [2] deals with nucleic acid and/or protein synthesis. The conditions noted are these: cited from earlier work.
The subject of data set [3] is humoral and cell-mediated immunities. The conditions noted are these: cited from earlier work.
The test system of data set [4] is autoimmune diseases, some infection allergies and dermatological contact allergies, transplantation immunological responses. The conditions noted are these: in vivo; cited from earlier work.
Data set [5] relates to red blood cells. In words: Heat-induced hemolysis of red blood cells / cell membrane stabilization. Particulars: Compound-1 compared with mefenamic acid or indomethacin. It counts as cell-based.
In data set [6] the test system is primary antibody formation in spleen cell culture. The experiment in a line: Antibody formation in spleen cell culture in vitro (hemolytic plaque assay). Format: cell-based, mice. On the procedure: Additional experiment to evaluate the effect of Compound-1 on primary antibody formation was made by spleen cell culture in vitro. According to the method described by Mishell and Dutton [J. Exp. Med., 126, 423 (1967)], dissociated spleen cells prepared from normal mice spleens were cultured with SRBC as antigen and at initiation of cultures Compound-1 was added, and then four days later, antibody formation in cultures was determined by Jerne's hemolytic plaque assay.

For data set [7], the system named is experimental allergic encephalomyelitis (EAE). In words: Suppression of experimental allergic encephalomyelitis (EAE). Format: in vivo, guinea pigs. The conditions noted are these: for recurrence of paralysis after discontinuation: after discontinuation of the drug. From the text: By injecting basic protein (B.P.) the extract from central nervous tissue, together with Freund's complete adjuvant, a typical EAE symptom develops. Guinea pigs show drastic reduction of body weight and development of paralysis about ten days after injection with BP and they finally die within 17 days after the injection of BP.

In data set [8] the test system is systemic anaphylactic shock. In words: Suppression of systemic anaphylactic shock (egg albumin). The conditions noted are these: for time of death after induction, Animal No. 1: control 16; for time of death after induction, Animal No. 2: control 25; for time of death after induction, Animal No. 3: control 27. Format: in vivo, mice. On the procedure:
The mice were immunized by a subcutaneous injection of a mixture of 0.1 ml. (100 mcg.) egg albumin and 0.1 ml. Freund's complete adjuvant, and used for experiment four months thereafter. In control mice sensitized in the above manner, the shock symptom emerged after induction by intravenous injection of 100 mcg. egg albumin and most of the animals died from shock within about 40 minutes.
Table 3A show the suppression effect with Compound -1 when given as a single dose (0.25 or 1.0 mg./mouse, i.p.) at the time of sensitization. […] In the animals receiving the test drug, the time until death after induction was somewhat delayed and most of the animals survived the shock.

The test system of data set [9] is rats. The experiment in a line: One-month daily administration. Particulars: oral or i.p., daily 12.5, 50 or 200 mg./kg. Format: in vivo. On the procedure:
Compound-1 and Compound-2 were given orally or intraperitoneally to rats in daily doses of 12.5, 50 or 200 mg./kg., respectively, for one month.

The test system of data set [10] is primary antibody formation to sheep red blood cells (SRBC), spleen cells. In words: Suppression of primary antibody formation (plaque forming cells, Jerne's method). It counts as in vivo, mice (ddY-strain).
Procedure: 10^8 sheep red blood cells (SRBC) were injected intravenously into ddY-strain mice to immunize the animals, when the compounds of Formula (I) were administered intraperitoneally.
Each compound was administered intraperitoneally in the dosage of 1 mg./mouse.
Data set [11] has as its system contact allergy induced by dinitrochlorobenzene (DNCB). The experiment in a line: Suppression of contact allergy induced by dinitrochlorobenzene (DNCB). It counts as in vivo, guinea pigs. The conditions noted are these: 100 mg./kg. i.p. at 0.5, 24 and 48 hours before challenge. Also on record: key to Skin Lesion Score, Animal No. 1 / Skin Lesion Score, Animal No. 2 / Skin Lesion Score, Animal No. 3: +: slight erythema; ++: marked erythema and slight swelling; +++: marked induration and swelling. On the procedure: For example, approximately 0.1 ml. of a 10% solution of DNCB in acetone was administered percutaneously on the ear. Fourteen days later animals were skin tested on a shaved flank by topical spotting (about 0.05 ml.) of a 0.1% solution of DNCB in acetone. Skin lesions were evaluated and scored 24 hours later as follows:
Guinea pigs readily develop contact hypersensitivities of the delayed-type by simple topical application of DNCB.

Data set [12] has as its system passive cutaneous anaphylaxis (PCA). The experiment in a line: Suppression of passive cutaneous anaphylaxis (PCA). The conditions noted are these: dilution giving a 10 mm. diameter blue zone; for Max. Dilution of Antiserum, i.p.: i.p. 50 mg./kg. Format: in vivo, guinea pigs. On the procedure: The compounds of Formula (I) are active in suppressing passive cutaneous anaphylaxis (PCA) in guinea pigs. Guinea pigs received intradarmally serial dilutions of antiserum (0.1 ml.), which was obtained from guinea pigs immunized with a mixture of egg albumin and Freund's complete adjuvant. At the time of sensitization with antiserum, the compound of Formula (I) was administered either orally (100 mg./kg.) or intraperitoneally (50 mg./kg.).
Four hours later the animals were challenged by intravenous injection of a mixture of 5 mg. egg albumin and Evans blue dye. The reaction was measured 30 minutes later by the blue zone which emerged at the point of antiserum injection.

The nature of data set [13]: Acute toxicity, intraperitoneal. Particulars: mouse, in vivo, ip, mice, read-out: LD50 (approximate). On the procedure: Acute toxicological studies were carried out on mice by intraperitoneal administration of the compounds of Formula (I). The approximate LD50 values for representative compounds are given as follows: […]
The test system of data set [14] is Delayed-Type Hypersensitivity (DTH) to sheep red blood cells (SRBC). The experiment in a line: Suppression of delayed-type hypersensitivity (SRBC footpad swelling). Format: in vivo, mouse. Particulars: for inhibition in vivo at 1 mg: Erythrocyte, 1 mg./mouse i.p. On the procedure:
The compounds of Formula (I) show suppression of various delayed-type hypersensitivity. In reference to the method by Lagrange [J. Exp. Med. 139, 528 (1974)], 10^8 sheep red blood cells (SRBC) without adjuvant were subcutaneously injected into the mouse hind footpad to immunize the animal. Four days later the animals were challenged by subcutaneous injection of 10^8 SRBC into another footpad. DTH response was measured as the increase in the thickness of footpad 24 hours after the injection of SRBC.
Varying doses of Compound-1 were administered orally or intraperitoneally either at the time of immunization (day 0) or challenge (day 4).
In FIG. 1 the ordinate indicates the swelling (× 0.1 mm.) of mice footpads on day 5 and the abscissa indicates the dose of Compound-1 per mouse administered by the oral (right) and intraperitoneal (left) routes. Solid line curve indicates the relationship when Compound-1 was administered on day 0 and the dotted line curve indicates the relationship when given on day 4.
The compounds were administered intraperitoneally in a dose 1 mg./mouse at the time of immunization (day 0) or challenge (day 4). Table 1 includes the results of humoral antibody response described later.

The mark [15] stands for this setting: 10 mg. i.p. once daily, days 3 to 21 after antigen, five animals.
[16] abbreviates: 0.25 mg./mouse i.p. at the time of sensitization.
Setting [17] is: 1.0 mg./mouse i.p. at the time of sensitization.

For `Sc1ncnc2nc[nH]c12` [6-mercaptopurine], in data set [1] (after discontinuation and following a latent period), the “EAE after discontinuation of the drug (known agents)” value is recorded as “the animals often develop paralytic EAE”. Also, the “suppression of development of EAE (known agents)” value in data set [1] (at such high doses as would cause toxicity) is on record as “can suppress the development of EAE”. In addition, in data set [2], the “effect on nucleic acid and/or protein synthesis” value is reported as “disrupt nucleic acid and/or protein synthesis”. In data set [3], the “dose at which effective / cytotoxicity” value is reported as “effective in general only at near-lethal doses owing to their cytotoxicity”; the “inhibition of humoral and cell-mediated immunities” value was “inhibit both humoral and cell-mediated immunities”. Moreover, the “effectiveness in therapy of autoimmune diseases, allergies, transplantation responses” value in data set [4] is “effective in the therapy of autoimmune diseases, some infection allergies and dermatological contact allergies”.
Usually LD50 stands for the dose at which mortality reaches 50%. Consider `O=C(Nc1cc(Cl)c(O)c(Cl)c1)c1ccccc1O` [Compound-1, 3',5'-Dichloro-2,4'-dihydroxybenzanilide], for which the “suppression of heat-induced hemolysis of red blood cells” value in data set [5] is recorded as “suppressed the heat-induced hemolysis of red blood cells to about the same extent as did mefenamic acid or indomethacin”. Moreover, the “cytotoxicity / anti-proliferative effect in vitro” value in [6] (in vitro) was “not cytotoxic nor anti-proliferative in vitro”. Besides, in data set [6] (spleen cell culture in vitro), the “number of nucleated cells in culture” value is “no changes in the number of nucleated cells” and the “viable cell count in culture” value is recorded as “no changes in the number of nucleated cells nor in the viable cell count”. Moreover, the “number of plaque forming cells in culture” value in [6] (spleen cell culture in vitro, four days) is listed as “significantly decreased”. Moreover, the “time of paralysis after antigen injection” value in data set [7] (10 mg. i.p. once daily, days 3 to 21, four of five animals) was in the range of 13 to 16 days. In addition, in [7] (setting [15]), the “animals with paralysis to a certain degree and course of symptoms” value is “four others showed paralysis to a certain degree at 13-16 days but the symptoms of EAE soon disappeared”; the “animals without sign of paralysis” value is reported as “one gave no sign of the development of paralysis”. In data set [7], the “recurrence of paralysis after discontinuation” value is recorded as “no more paralytic symptoms recurred”. Besides, the “recurrence of paralysis after discontinuation” value in data set [7] (listed as compound-1) is “without recrudescence of paralysis after discontinuation of the drug”. For the same compound, in [7] (guinea pigs), the “suppressive effect on EAE” value is “potent suppressive effect on EAE”. Moreover, in data set [8] (setting [16]), the “time of death after induction, Animal No. 1” value was 18 min; the “time of death after induction, Animal No. 2” value worked out at 21 min; the “time of death after induction, Animal No. 3” value amounted to 22 min. The “time of death after induction, Mouse No. 1” value in [8] (1 mg./mouse i.p. at 0.5 and 5 hours before challenge, control 15) came to 35 min. Also, in [8] (setting [17]), the “time of death after induction, Animal No. 1” value turned out to be 22 min; the “time of death after induction, Animal No. 2” value came out at 23 min; the “time of death after induction, Animal No. 3” value came to 30 min. Also, in data set [9], the “symptoms or abnormality attributable to the drug” value is reported as “no particular symptoms or abnormality attributable to the drug dosage was noted” and the weight gain result was “normal”. The “primary antibody formation in spleen cells of treated mice (FIG. 3)” value in data set [10] (1000, 250, 62.5 and 15.6 mcg./mouse i.p.) was “apparently suppressed in proportion to increased amounts of Compound-1”. Besides, in data set [10] (Erythrocyte, ip, 96 h, 1 mg./mouse i.p., read-out: Suppression, Plaque Forming Cells (suppression rate of primary antibody formation)), the inhibition in vivo at 1 mg was greater than 75%. In addition, in data set [11], the “inhibition of the response to DNCB” value is on record as “significant inhibition of the response to DNCB”. Further, in data set [11] (control None +++), the “Skin Lesion Score, Animal No. 1” value is listed as “+”; the “Skin Lesion Score, Animal No. 2” value is “+”; the “Skin Lesion Score, Animal No. 3” value was “++”. For the same compound, the “Max. Dilution of Antiserum, i.p.” value in [12] (control 1024) is 64. In data set [12] (control 1350), the “Max. Dilution of Antiserum, i.p.” value was determined as 315. Moreover, the “Max. Dilution of Antiserum, Oral” value in [12] (oral 100 mg./kg., control 1060) is given as 548. For the same compound, in [13], the LD50 was determined as 2400 mg/kg. Moreover, the inhibition in vivo at 1 mg in data set [14] (96 h, at challenge (day 4), read-out: Suppression, Delayed-Type Hypersensitivity, Administered at Induction (suppression rate)) was greater than 75%. Besides, the inhibition in vivo at 1 mg in data set [14] (ip, 0 h, at immunization (day 0), read-out: Suppression, Delayed-Type Hypersensitivity, Administered at Immunization (suppression rate)) was 0 to 25%. Also, in [14] (varying doses, oral or i.p., at challenge (day 4)), the “DTH suppression, administered on day 4 (FIG. 1)” value is “DTH was suppressed in mice sensitized by footpad inoculation with SRBC”. Further, in [14] (varying doses, oral or i.p., at sensitization (day 0)), the “DTH suppression, given at sensitization (day 0) (FIG. 1)” value is “not active when given at the time of sensitization (day 0)”.
